According to patent EP1701622B1, “METHOD FOR WASHING CARCASS, MEAT, OR MEAT PRODUCTS WITH MEDIUM CHAIN PEROXYCARBOXYLIC ACID COMPOSITIONS” (ECOLAB INC., priority 2004, dated 2005):
Where two headings read alike, the source gives them in different places.

Columns and labels:
Format in all cases: cell-based
S. aureus = experiment: Germicidal and detergent sanitizing action suspension test (AOAC 960.09); conditions: Staphylococcus aureus, 0.5 min
Experimental: (§1) Antimicrobial activity was determined according to two well established methods. The first method was the procedure set out in Germicidal and Detergent Sanitizing Action of Disinfectants, Official Methods of Analysis of the Association of Official Analytical Chemists, paragraph 960.09 and applicable sections, 15th Edition, 1990 (EPA Guideline 91-2). The second method was the procedure described in A.O.A.C. Use Dilution Methods, Official Methods of Analysis of the Association of Official Analytical Chemists, paragraph 955.14 and applicable sections, 15th Edition, 1990 (EPA Guideline 91-2). Briefly, antimicrobial activity of the present compositions was determined by exposing a one mL aliquot containing the target microorganism to 99 mL of the desired concentration of the test substance at the desired temperature. After the specified contact time, one mL of the test solution containing the microorganism was neutralized and enumerated for survivors.
(§2) Antimicrobial activity was determined as described above in Example 4.
(§3) Test 1 included 5 min exposure of the microbe to composition AB at room temperature. The microbes in test 1 included E. aerogenes ATCC 13048 and S. aureus ATCC 6538. Test 2 included 30 sec exposure of the microbe to composition AB at room temperature. The microbes in test 2 included S. aureus ATCC 6538, E. coli ATCC 11229, and P. aeruginosa ATCC 13442.

E. coli = experiment: as above; conditions: Escherichia coli, 0.5 min; for log reduction at 5 ppm / log reduction at 10 ppm: 30 Second Exposure at Room Temperature; for log reduction at 20 ppm / log reduction at 40 ppm / log reduction at 60 ppm: 30 seconds
Experimental: as §1, §2, §3

Bacterial Spores = experiment: Sporicidal test against conventional compositions (Table 22); conditions: H2O2 35% pH 3.32, KK 2.0 wt-% (250 ppm POOA) pH 1.85, mixed peracid 1.5 wt-% (750 ppm peracid) pH 3.06, peroxyacetic 4.5 wt-% (2610 ppm POAA) pH 2.61
Experimental: as §1

[1] = Soft water pH 3.91, Post Test pH 4.01

CCCCCCCC(=O)OO [Pure POOA Crystals, peroxyoctanoic acid]
log reduction at 5 ppm (S. aureus; 5 ppm, Milli-Q water pH 4.04, Post Test pH 4.09, 30 Second Exposure at Room Temperature, read-out: Log Reduction of S. aureus): 6.28 | log reduction at 5 ppm (S. aureus; 5 ppm, Milli-Q water pH 5.00, Post Test pH 5.03, 30 Second Exposure at Room Temperature, read-out: Log Reduction of S. aureus): 5.01 | log reduction at 5 ppm (S. aureus; 5 ppm, Milli-Q water pH 5.98, Post Test pH 5.89, 30 Second Exposure at Room Temperature, read-out: Log Reduction of S. aureus): 4.44 | log reduction at 5 ppm (S. aureus; 5 ppm, Milli-Q water pH 6.60, Post Test pH 6.24, 30 Second Exposure at Room Temperature, read-out: Log Reduction of S. aureus): 6.04 | log reduction at 5 ppm (S. aureus; 5 ppm, Soft water pH 3.91, Post Test pH 4.01, 30 Second Exposure at Room Temperature, read-out: Log Reduction of S. aureus): 5.82 | log reduction at 5 ppm (S. aureus; 5 ppm, Soft water pH 5.08* (pH drift of ~0.7 pH units), Post Test pH 5.79, 30 Second Exposure at Room Temperature, read-out: Log Reduction of S. aureus): 5.16 | log reduction at 5 ppm (S. aureus; 5 ppm, Soft water pH 5.91* (pH drift of ~0.7 pH units), Post Test pH 6.68, 30 Second Exposure at Room Temperature, read-out: Log Reduction of S. aureus): 4.19 | log reduction at 5 ppm (S. aureus; 5 ppm, Soft water pH 9.29, Post Test pH 9.12, 30 Second Exposure at Room Temperature, read-out: Log Reduction of S. aureus): 0.1 | log reduction at 10 ppm (S. aureus; Milli-Q water pH 4.04, Post Test pH 4.08, 30 Second Exposure at Room Temperature): > 6.82 | log reduction at 10 ppm (S. aureus; Milli-Q water pH 5.00, Post Test pH 4.98, 30 Second Exposure at Room Temperature): > 6.82 | log reduction at 10 ppm (S. aureus; Milli-Q water pH 5.98, Post Test pH 5.90, 30 Second Exposure at Room Temperature): 6.52 | log reduction at 10 ppm (S. aureus; Milli-Q water pH 6.60, Post Test pH 5.80, 30 Second Exposure at Room Temperature): > 6.82 | log reduction at 10 ppm (S. aureus; Soft water pH 3.91, Post Test pH 4.01, 30 Second Exposure at Room Temperature): 6.28 | log reduction at 10 ppm (S. aureus; Soft water pH 5.08, Post Test pH 5.67, 30 Second Exposure at Room Temperature): 6.12 | log reduction at 10 ppm (S. aureus; Soft water pH 5.91, Post Test pH 6.68, 30 Second Exposure at Room Temperature): > 6.82 | log reduction at 10 ppm (S. aureus; Soft water pH 9.29, Post Test pH 9.09, 30 Second Exposure at Room Temperature): 0.26 | log reduction at 5 ppm (S. aureus; concentration of 5 ppm, pH of ~5, 30 sec, RT, read-out: log reductions of Staphylococcus aureus): 5 | log reduction at 5 ppm (E. coli; Milli-Q water pH 4.04, Post Test pH 4.09): 1.34 | log reduction at 5 ppm (E. coli; Milli-Q water pH 5.00, Post Test pH 5.03): 0.07 | log reduction at 5 ppm (E. coli; Milli-Q water pH 5.98, Post Test pH 5.89): 0.11 | log reduction at 5 ppm (E. coli; Milli-Q water pH 6.60, Post Test pH 6.24): 0.09 | log reduction at 5 ppm (E. coli; [1]): 1.26 | log reduction at 5 ppm (E. coli; Soft water pH 5.08* (pH drift of ~0.7 pH units), Post Test pH 5.79): 0.09 | log reduction at 5 ppm (E. coli; Soft water pH 5.91* (pH drift of ~0.7 pH units), Post Test pH 6.68): 0.08 | log reduction at 5 ppm (E. coli; Soft water pH 9.29, Post Test pH 9.12): 0.07 | log reduction at 10 ppm (E. coli; Milli-Q water pH 4.04, Post Test pH 4.08): 6.04 | log reduction at 10 ppm (E. coli; Milli-Q water pH 5.00, Post Test pH 4.98): 0.07 | log reduction at 10 ppm (E. coli; Milli-Q water pH 5.98, Post Test pH 5.90): 0.1 | log reduction at 10 ppm (E. coli; Milli-Q water pH 6.60, Post Test pH 5.80): 0.06 | log reduction at 10 ppm (E. coli; [1]): 6.34 | log reduction at 10 ppm (E. coli; Soft water pH 5.08, Post Test pH 5.67): 0.55 | log reduction at 10 ppm (E. coli; Soft water pH 5.91, Post Test pH 6.68): 0.24 | log reduction at 10 ppm (E. coli; Soft water pH 9.29, Post Test pH 9.09): 0.07 | log reduction at 20 ppm (E. coli; 20 ppm, 500 ppm Synthetic Hard Water, pH 7.77, pH 7.68): 0.62 | log reduction at 40 ppm (E. coli; 40 ppm, 500 ppm Synthetic Hard Water, pH 7.77, pH 7.61): 0.93 | log reduction at 60 ppm (E. coli; 60 ppm, 500 ppm Synthetic Hard Water, pH 7.77, pH 7.54): 1.12 | log reduction at 60 ppm (E. coli; pH 5.08, 60 ppm, Milli-Q water, pH 5.08): 4.68 | log reduction at 40 ppm (E. coli; pH 5.28, 40 ppm, Milli-Q water, pH 5.28): 2.61 | log reduction at 20 ppm (E. coli; pH 5.58, 20 ppm, Milli-Q water, pH 5.58): 0.55

OO [Composition H2O2, hydrogen peroxide]
Log Reduction (Bacterial Spores; 40 °C, 30 sec): 1.19 log | Log Reduction (Bacterial Spores; 40 °C, 60 sec): 2.94 log | Log Reduction (Bacterial Spores; 40 °C, 120 sec): >6.30 log | Log Reduction (Bacterial Spores; 60 °C, 10 sec): 1.59 log | Log Reduction (Bacterial Spores; 60 °C, 20 sec): 4.85 log | Log Reduction (Bacterial Spores; 60 °C, 30 sec): 4.89 log | Log Reduction (Bacterial Spores; 80 °C, 10 sec): >6.30 log | Log Reduction (Bacterial Spores; 80 °C, 20 sec): >6.30 log | Log Reduction (Bacterial Spores; 80 °C, 30 sec): >6.30 log
